Experimental data reported in PubChem BioAssay AID256 (DTP/NCI, 2004).
Toxic doses and inconclusive results are not listed.

Test system: CD2F1 mice, L1210 leukemia ip, survival T/C
Assay: NCI In Vivo Anticancer Drug Screen. Data for tumor model L1210 Leukemia (intraperitoneal) in CD2F1 (CDF1) mice
Settings: endpoint: mean survival time, higher = longer survival
In short: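 In this screen, transplantable tumors were grown in mice given either the compound or its vehicle. Results were expressed as the treated measurement relative to the control measurement.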

[1] = dose: 75.0 mg/kg/injection, schedule: Q01DX001 (ip), vehicle: saline
[2] = dose: 100.0 mg/kg/injection, schedule: Q01DX009 (ip), vehicle: saline with Tween-80
[3] = dose: 200.0 mg/kg/injection, schedule: Q01DX009 (ip), vehicle: saline with Tween-80
[4] = dose: 400.0 mg/kg/injection, schedule: Q01DX009 (ip), vehicle: saline with Tween-80
[5] = dose: 12.5 mg/kg/injection, schedule: Q01DX009 (ip), vehicle: Klucel (hydroxypropylcellulose) (HPC)
[6] = dose: 25.0 mg/kg/injection, schedule: Q01DX009 (ip), vehicle: Klucel (hydroxypropylcellulose) (HPC)
[7] = dose: 50.0 mg/kg/injection, schedule: Q01DX009 (ip), vehicle: Klucel (hydroxypropylcellulose) (HPC)
[8] = dose: 100.0 mg/kg/injection, schedule: Q01DX009 (ip), vehicle: Klucel (hydroxypropylcellulose) (HPC)

COC1=C(C#N)CC2(C)C(CCC3C2CCC2(C)C(C(C)CCCC(C)C)CCC32)C1 (stereo unspecified)
T/C (dose: 100.0 mg/kg/injection, schedule: Q04DX003 (ip), vehicle: saline sonified): 92 % of control
T/C (dose: 200.0 mg/kg/injection, schedule: Q04DX003 (ip), vehicle: saline sonified): 93 % of control
T/C (dose: 400.0 mg/kg/injection, schedule: Q04DX003 (ip), vehicle: saline sonified): 92 % of control

COc1ccc2c(c1)OC(C)(C)C(c1ccccc1)=C2c1ccc(OCCN2CCCC2)cc1
T/C [1]: 98 % of control

CC(C)(O)C#Cc1ccccc1
T/C [2]: 98 % of control
T/C [3]: 98 % of control
T/C [4]: 96 % of control

CN1CC=C(c2ccccc2)CC1
T/C (dose: 18.8 mg/kg/injection, schedule: Q04DX003 (ip), vehicle: saline): 102 % of control
T/C (dose: 37.5 mg/kg/injection, schedule: Q04DX003 (ip), vehicle: saline): 104 % of control
T/C [1]: 100 % of control

COC1CCC(/C=C(\C#N)C2CCC([N+](=O)[O-])CC2)CC1 (stereo unspecified)
T/C (dose: 25.0 mg/kg/injection, schedule: Q01DX009 (ip), vehicle: saline with Tween-80): 86 % of control
T/C (dose: 50.0 mg/kg/injection, schedule: Q01DX009 (ip), vehicle: saline with Tween-80): 88 % of control
T/C [4]: 94 % of control

COc1ccc(C2C(C(C)=O)=C(C)NC(C)=C2C(C)=O)cc1
T/C (dose: 100.0 mg/kg/injection, schedule: Q04DX003 (ip), vehicle: saline with Tween-80): 88 % of control
T/C (dose: 200.0 mg/kg/injection, schedule: Q04DX003 (ip), vehicle: saline with Tween-80): 87 % of control

C[S+]1C=Cc2ccccc2C1c1ccc(Cl)cc1 (stereo unspecified)
T/C (dose: 12.5 mg/kg/injection, schedule: Q04DX002 (ip), vehicle: Klucel (hydroxypropylcellulose) (HPC)): 103 % of control
T/C (dose: 25.0 mg/kg/injection, schedule: Q04DX002 (ip), vehicle: Klucel (hydroxypropylcellulose) (HPC)): 100 % of control
T/C (dose: 50.0 mg/kg/injection, schedule: Q04DX002 (ip), vehicle: Klucel (hydroxypropylcellulose) (HPC)): 105 % of control

Cc1ccc(S(=O)(=O)N/N=C/c2ccccc2Cl)cc1
T/C [5]: 93 % of control
T/C [6]: 91 % of control
T/C [7]: 90 % of control
T/C [8]: 98 % of control

CC1CC(C)(C)N=C(C(C)CC2CCCCC2)O1 (stereo unspecified)
T/C (dose: 100.0 mg/kg/injection, schedule: Q01DX001 (ip), vehicle: saline with Tween-80): 95 % of control
T/C (dose: 200.0 mg/kg/injection, schedule: Q01DX001 (ip), vehicle: saline with Tween-80): 93 % of control

COc1cc([C@@H]2c3cc4c(cc3[C@H](OC(C)=O)[C@H]3COC(=O)[C@@H]23)OCO4)cc(OC)c1OC
T/C (dose: 100.0 mg/kg/injection, schedule: Q01DX009 (ip), vehicle: saline sonified): 88 % of control

CC(=O)Nc1cc(/C=C/c2ccccc2)ccc1S(=O)(=O)c1ccc(/C=C/c2ccccc2)cc1NC(C)=O
T/C [2]: 93 % of control
T/C [3]: 96 % of control
T/C [4]: 88 % of control

CN(C)/N=N/c1[nH]ncc1C(N)=O
T/C (dose: 150.0 mg/kg/injection, schedule: Q01DX001 (oral), vehicle: saline): 121 % of control
T/C (dose: 1200.0 mg/kg/injection, schedule: Q01DX001 (oral), vehicle: saline): 158 % of control

S=C1SC2CCCCC2S1 (stereo unspecified)
T/C (dose: 100.0 mg/kg/injection, schedule: Q01DX001 (ip), vehicle: Klucel (hydroxypropylcellulose) (HPC)): 104 % of control
T/C (dose: 200.0 mg/kg/injection, schedule: Q01DX001 (ip), vehicle: Klucel (hydroxypropylcellulose) (HPC)): 107 % of control
T/C (dose: 400.0 mg/kg/injection, schedule: Q01DX001 (ip), vehicle: Klucel (hydroxypropylcellulose) (HPC)): 98 % of control

COc1c2c(c(OC)c3c1C(=O)c1ccccc1C3=O)CC(O)CC2 (stereo unspecified)
T/C [5]: 92 % of control
T/C [6]: 94 % of control
T/C [7]: 92 % of control
T/C [8]: 88 % of control
T/C (dose: 200.0 mg/kg/injection, schedule: Q01DX009 (ip), vehicle: Klucel (hydroxypropylcellulose) (HPC)): 90 % of control

NC(=O)N1c2c(nc(N)[nH]c2=O)NCC1CNc1ccc(C(=O)NC(CCC(=O)O)C(=O)O)cc1 (stereo unspecified)
T/C (dose: 100.0 mg/kg/injection, schedule: Q01DX001 (ip), vehicle: sodium bicarbonate): 102 % of control
T/C (dose: 200.0 mg/kg/injection, schedule: Q01DX001 (ip), vehicle: sodium bicarbonate): 97 % of control
T/C (dose: 400.0 mg/kg/injection, schedule: Q01DX001 (ip), vehicle: sodium bicarbonate): 96 % of control
